Measurements reported in patent US20150038543A1, “ANTI-GLYCATION PROPERTIES OF OXINDOLE DERIVATIVES” (priority 2013, published 2015).
Where “and” joins values, the source holds several entries; their conditions need not be identical. Equal values may be shown once. Read-outs that look alike come from different tables or passages of the source.

Target: T1, BSA-MG glycation model (bovine serum albumin + methylglyoxal) (Bos taurus, UniProt P02769)
T1 construct: purchased Merck Marker Pvt; Ltd. (Germany)
Assay: in vitro BSA-MG glycation model (fluorescence of AGE formation)
Format: biochemical
Conditions: for activity against the protein glycation (in words): in vitro protein glycation, compared with standard rutin
Experimental: Bovine serum albumin (BSA) was purchased from Merck Marker Pvt. Ltd. (Germany), rutin and methylglyoxal (MG) (40% aqueous solution) were from Sigma Aldrich (Japan), sodium dihydrogen phosphate (NaH2PO4), disodium hydrogen phosphate (Na2HPO4) and sodium azide (NaN3) were purchased from Scharlau Chemie, S. A. (Spain), while dimethyl sulphoxide (DMSO) was purchased from Fischer Scientific (UK).
The total reaction volume of the assay was 200 μL, having final concentrations of 10 mg/mL BSA, 14 mM methylglyoxal, and 1 mM test compounds. 10 mg/mL solution of BSA and 14 mM methylglyoxal was prepared in 0.1 M phosphate buffer (pH 7.4), containing sodium azide (NaN3) (30 mM) as antimicrobial agent, while 1 mM solutions of test compounds were prepared in the DMSO. Assay was performed in triplicate. Each reaction mixtures were comprised of 50 μL BSA, 50 μL methylglyoxal, 20 μL test compound and 80 μL phosphate buffer (pH 7.4). The reaction mixture was incubated under aseptic conditions at 37° C. for 9 days.
After completion of nine days of incubation, each sample was examined for the development of specific fluorescence (excitation 330 nm; emission 420 nm) against blank on a microtitre plate reader (SpectraMax M2, Molecular Devices, CA, USA). The percent inhibition of AGE formation by the test sample versus control was calculated by using the following formula:
% Inhibition=(1−Fluorescence of test sample/Fluorescence of the control)×100
The IC50 (i.e. the concentration of test samples that inhibit the process of glycation to 50%) was determined by monitoring the effect of various concentrations (ranges from 1000-50 μM) of test compounds. The IC50 values were calculated by using EZ-FIT Enzyme Kinetics Program (Perrella Scientific Inc., Amherst, USA). The antiglycation potential of test compounds was compared with rutin, which was used as standard inhibitor.

[1] = read-out: % inhibition against BSA-MG glycation model, 1 mM test compound, BSA 10 mg/mL, methylglyoxal 14 mM, 37° C., 9 days
[2] = Antiglycation Activity IC50 ± SEM, BSA 10 mg/mL, methylglyoxal 14 mM, pH 7.4, 37° C., 9 days, test concentrations 1000-50 μM, triplicate, NA = not active
[3] = 1 mM test compound, BSA 10 mg/mL, methylglyoxal 14 mM, 37° C., 9 days, read-out: % inhibition against BSA-MG glycation model
[4] = BSA 10 mg/mL, methylglyoxal 14 mM, pH 7.4, 37° C., 9 days, test concentrations 1000-50 μM, triplicate, NA = not active, read-out: Antiglycation Activity IC50 ± SEM

T1 sequence (P02769 25-607): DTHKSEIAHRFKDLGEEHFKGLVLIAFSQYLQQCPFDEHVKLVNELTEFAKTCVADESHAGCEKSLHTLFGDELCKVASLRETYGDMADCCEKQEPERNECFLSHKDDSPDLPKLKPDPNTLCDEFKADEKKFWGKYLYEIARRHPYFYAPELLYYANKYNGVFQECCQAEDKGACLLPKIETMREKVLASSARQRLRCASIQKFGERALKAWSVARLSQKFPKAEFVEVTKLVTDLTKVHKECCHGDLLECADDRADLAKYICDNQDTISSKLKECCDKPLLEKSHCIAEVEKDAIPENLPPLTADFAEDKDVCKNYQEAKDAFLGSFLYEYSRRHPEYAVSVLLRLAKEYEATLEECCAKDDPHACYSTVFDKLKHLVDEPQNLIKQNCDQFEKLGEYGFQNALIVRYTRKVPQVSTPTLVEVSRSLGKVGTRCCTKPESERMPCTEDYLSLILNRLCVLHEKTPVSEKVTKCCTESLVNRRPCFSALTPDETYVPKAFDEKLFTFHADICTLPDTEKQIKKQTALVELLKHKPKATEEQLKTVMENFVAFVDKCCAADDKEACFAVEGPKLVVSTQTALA

inhibition at 1000 µM [1] [%] | IC50 [2] | SMILES | also measured
< 50 | – | CSc1ccc(/C=C2/C(=O)Nc3ccccc32)cc1 [Compound 10, 3-[(E)-(4-methylsulfanylphenyl)methylidene]-1,3-dihydro-2H-indol-2-one] | –
< 50 | – | O=C1Nc2ccccc2/C1=C\c1cccc([N+](=O)[O-])c1 [Compound 17, 3-[(E)-(3-nitrophenyl)methylidene]-1,3-dihydro-2H-indol-2-one] | –
< 50 | – | COc1ccccc1/C=C1/C(=O)Nc2ccccc21 [Compound 7, 3-[(E)-(2-methoxyphenyl)methylidene]-1,3-dihydro-2H-indol-2-one] | IC50 (bovine, 9 days, pH 7.4): 194 to 455 µM
< 50 | – | O=C1Nc2ccccc2/C1=C\c1ccc(Cl)c(Cl)c1 [Compound 12, 3-[(E)-(3,4-dichlorophenyl)methylidene]-1,3-dihydro-2H-indol-2-one] | –
– | 194 µM and 194 to 455 µM | Cc1ccc(O)c(/C=C2/C(=O)Nc3ccccc32)c1 [Compound 13, 3-[(E)-(2-hydroxy-5-methylphenyl)methylidene]-1,3-dihydro-2H-indol-2-one] | activity against the protein glycation (in words): potent activity
– | – | O=C1Nc2ccccc2/C1=C\c1ccc([N+](=O)[O-])cc1 [Compound 15, 3-[(E)-(4-nitrophenyl)methylidene]-1,3-dihydro-2H-indol-2-one] | inhibition at 1000 µM [3]: < 50%
– | – | O=C1Nc2ccccc2/C1=C\c1cccc(O)c1 [Compound 1, 3-[(E)-(3-hydroxyphenyl)methylidene]-1,3-dihydro-2H-indol-2-one] | IC50 [4]: 282 µM and 194 to 455 µM; activity against the protein glycation (in words): potent activity
– | – | C[C@@H]1O[C@@H](OC[C@H]2O[C@@H](Oc3c(-c4ccc(O)c(O)c4)oc4cc(O)cc(O)c4c3=O)[C@H](O)[C@@H](O)[C@@H]2O)[C@H](O)[C@H](O)[C@H]1O [Rutin, reference compound] | IC50 [4]: 294 µM
< 50 | – | O=C1Nc2ccccc2/C1=C\c1ccccc1F [Compound 9, 3-[(E)-(2-fluorophenyl)methylidene]-1,3-dihydro-2H-indol-2-one] | –
< 50 | – | O=C1Nc2ccccc2/C1=C\c1cccc2ccccc12 [Compound 2, 3-[(E)-1-naphthylmethylidene]-1,3-dihydro-2H-indol-2-one] | IC50 (bovine, 9 days, pH 7.4): 194 to 455 µM
– | – | O=C1Nc2ccccc2/C1=C\c1ccc(O)cc1 [Compound 5, 3-[(E)-(4-hydroxyphenyl)methylidene]-1,3-dihydro-2H-indol-2-one] | inhibition at 1000 µM [3]: < 50%
– | – | CCOc1ccc(/C=C2/C(=O)Nc3ccccc32)cc1 [Compound 6, 3-[(E)-(4-ethoxyphenyl)methylidene]-1,3-dihydro-2H-indol-2-one] | inhibition at 1000 µM [3]: < 50%
– | 856.7 ± 2.4 µM | O=C1Nc2ccccc2/C1=C\c1ccc(Cl)cc1Cl [Compound 18, 3-[(E)-(2,4-dichlorophenyl)methylidene]-1,3-dihydro-2H-indol-2-one] | –
– | 374 µM and 194 to 455 µM | COc1cccc(/C=C2/C(=O)Nc3ccccc32)c1O [Compound 11, 3-[(E)-(2-hydroxy-3-methoxyphenyl)methylidene]-1,3-dihydro-2H-indol-2-one] | –
– | 268 µM and 194 to 455 µM | CCOc1cccc(/C=C2/C(=O)Nc3ccccc32)c1O [Compound 3, 3-[(E)-(3-ethoxy-2-hydroxyphenyl)methylidene]-1,3-dihydro-2H-indol-2-one] | activity against the protein glycation (in words): potent activity
< 50 | – | O=C1Nc2ccccc2/C1=C\c1ccc(Cc2ccccc2)cc1 [Compound 21, 3-[(E)-(4-benzylphenyl)methylidene]-1,3-dihydro-2H-indol-2-one] | –
– | – | O=C1Nc2ccccc2/C1=C\c1ccccc1O [Compound 20, 3-[(E)-(2-hydroxyphenyl)methylidene]-1,3-dihydro-2H-indol-2-one] | IC50 [4]: 285 µM and 194 to 455 µM; activity against the protein glycation (in words): potent activity
< 50 | – | O=C1Nc2ccccc2/C1=C\c1cc(Cl)ccc1O [Compound 16, 3-[(E)-(5-chloro-2-hydroxyphenyl)methylidene]-1,3-dihydro-2H-indol-2-one] | –
– | 151 µM and 150 µM | O=C1Nc2ccccc2/C1=C\c1cccc(Cl)c1 [Compound 14, 3-[(E)-(3-chlorophenyl)methylidene]-1,3-dihydro-2H-indol-2-one] | activity against the protein glycation (in words): potent activity
– | 456 µM and 194 to 455 µM | O=C1Nc2ccccc2/C1=C\c1c2ccccc2cc2ccccc12 [Compound 4, 3-[(E)-9-anthrylmethylidene]-1,3-dihydro-2H-indol-2-one] | –
– | 211 ± 4.1 µM | O=C1Nc2ccccc2/C1=C\c1ccc(F)cc1 [Compound 8, 3-[(E)-(4-fluorophenyl)methylidene]-1,3-dihydro-2H-indol-2-one] | activity against the protein glycation (in words): potent activity
